Laboratory results: patent US12552792B2, “Solid forms of an FGFR inhibitor and processes for preparing the same” (Incyte Corporation, priority 2018, dated 2026)

How the values were obtained:
[1] = tested on: patients with myeloid/lymphoid neoplasms with FGFR1 rearrangement; assay: Phase 2 clinical study in myeloid/lymphoid neoplasms with FGFR1 rearrangement; format: in vivo, human; conditions: for evaluable patients who achieved clinical response: preliminary
Text: All potential subjects must have documentation of an 8p11 translocation known to activate FGFR1 through the site's own cytogenetics laboratory. Once documentation has been provided, the subject undergoes screening to meet the rest of the inclusion/exclusion criteria.
One cycle is defined as 21 days of treatment.
The study population is subjects with myeloid/lymphoid neoplasms with FGFR1 rearrangement. […] In addition, only subjects who are not candidates for stem cell transplantation, or have relapsed after stem cell transplantation and […] lymphocyte infusion and who have progressed and are not candidates for other disease-modifying therapies are eligible for the study.
Additional key exclusion criteria include current evidence of clinically significant corneal disorder/keratopathy (including but not limited to bullous/band keratopathy, corneal abrasion, inflammation/ulceration, and keratoconjunctivitis, etc) or retinal disorder (including but not limited to macular/retinal degeneration, diabetic retinopathy, retinal detachment, etc) as confirmed by ophthalmologic examination.
Study visits may include sample collection for chemistry, hematology, coagulation, lipid panel, endocrine monitoring, and urinalysis testing. […] A sample of bone marrow aspirate or peripheral blood is sent to the central laboratory for confirmation of FGFR1 rearrangement as well as a central pathology laboratory for analysis. In addition, sites provide slides and/or digitized images of bone marrow aspirate at baseline and at the time of achieving response and send them to a central pathology group for review.
Once the subject's eligibility is confirmed through the site's laboratory, screening may begin. […] Safety follow-up is 30 days (+5 days) after the last dose of the study drug. In addition, subjects are followed for overall survival after stopping treatment with study drug. Study participation is expected to average approximately 6 months per individual subject.

[2] = Competitive slurry experiments with mixed Compound 1 polymorphs (XRPD); format: physicochemical; conditions: for Solid State Form after competitive slurry: saturated Form I solution + 5 mg each of Form I through Form XXVI, stirred overnight, XRPD; for Competitive slurry result (form by XRPD): DCM/MeOH (9:1, 0.6 mL), 5 mg each of Form I through Form XXVI
Protocol: To evaluate the transformation of solid forms of Compound 1, competitive slurry experiments were performed as follows. To the saturated solution of Form I in the solvent as listed in Table 11 was added Form I (5 mg), then 5 mg each of Form II through Form XXVI.
The slurry was stirred overnight, filtered and analyzed by XRPD.
A competitive slurry experiment was conducted in dichloromethane/methanol (9/1) according to the procedure in Table 12. The mixture of forms (Form I through Form XXVI) was converted to Form II after 15 min as shown by XRPD at various time points including 15 mins, 1 h, 18 h and 3 days, which indicated the Form II was consistently obtained.

For `CCN1C(=O)N(c2c(F)c(OC)cc(OC)c2F)Cc2cnc3[nH]c(CN4CCOCC4)cc3c21` [Compound 1, 3-(2,6-difluoro-3,5-dimethoxyphenyl)-1-ethyl-8-(morpholin-4-ylmethyl)-1,3,4,7-tetrahydro-2H-pyrrolo[3′,2′:5,6]pyrido[4,3-d]pyrimidin-2-one], the “evaluable patients who achieved clinical response” value ([1]; 13 evaluable patients, 13.5 mg QD) was 85%, the “Treatment discontinued, reason: Adverse Event, number of patients” value ([1]; 14 patients treated) was 2 and the “TRAE alopecia, %” value ([1]; 14 patients, 13.5 mg QD) was 29%. The “TRAE diarrhea, %” value ([1]; 14 patients, 13.5 mg QD) was 36%, the “TRAE dyspepsia, %” value ([1]; 14 patients, 13.5 mg QD) was 14% and the “TRAE fatigue, %” value ([1]; 14 patients, 13.5 mg QD) was 14%. For the same molecule, the “TRAE hyperphosphatemia, %” value ([1]; 14 patients, 13.5 mg QD) was 64%, the “TRAE increased blood alkaline phosphatase, %” value ([1]; 14 patients, 13.5 mg QD) was 21% and the “TRAE stomatitis, %” value ([1]; 14 patients, 13.5 mg QD) was 14%. For the same molecule, the “patients with grade 3 TRAEs” value ([1]; 14 patients, 13.5 mg QD) was “Three”, the “tolerability (in words)” value ([1]; 14 patients, 13.5 mg QD) was “generally well tolerated” and the “patients with fatal TEAEs” value ([1]; 14 patients, unrelated to treatment) was “Two”. For the same molecule, the “evaluable patients who achieved clinical response” value ([1]; of 13 evaluable patients, 13.5 mg QD) was 11 patients, the “response of single patient (PET scan, cytogenetics)” value ([1]; person, myeloproliferation and TLL, ZMYM2-FGFR1 fusion, 13.5 mg daily 2 weeks on, 1 week off, at 4 months (beginning of cycle 6)) was “complete cytogenetic remission and complete lymph node remission” and the “Solid State Form after competitive slurry” value (“Solid State Form” below) ([2]; Acetonitrile (1.7 mL)) was “Form I”. For the same molecule, the “Competitive slurry result (form by XRPD)” value ([2]; stirred for 15 min) was “Form II”, the “Competitive slurry result (form by XRPD)” value ([2]; stirred for 60 min) was “Form II” and the “Competitive slurry result (form by XRPD)” value ([2]; stirred for 18 h) was “Form II”. The “Competitive slurry result (form by XRPD)” value ([2]; stirred for 3 days) was “Form II”, the “Solid State Form” value ([2]; Ethanol (1.7 mL)) was “Form I” and the “Solid State Form” value ([2]; Iso-propanol (1.7 mL)) was “Form I”.
